Data taken from patent publication US9688675B2, “1,7-naphthyridine derivatives” (Hoffmann-La Roche Inc., priority 2013, dated 2017).

Test system: human embryonic stem cell derived neural stem cells (NSCs)
Experiment: Neural Stem Cell Proliferation Assay (Neurogenesis Assay, ATP levels by CellTiterGlo)
Format: cell-based
Settings: 96 h, compound concentration at which 150% activity of control (100%) is reached, NSC proliferation, 4 days incubation
Protocol: Neural Stem Cell Proliferation Assay
Neurogenic properties of small molecules are determined based on the proliferation of human embryonic stem cell derived neural stem cells (NSCs) which were derived via a dual smad inhibition as previously described (Chambers, S. M., et al., Highly efficient neural conversion of human ES and iPS cells by dual inhibition of SMAD signaling, Nature biotechnology, 2009. 27(3): p. 275-80.)
Compounds respond is measured by the increase in cells based on ATP levels
(Promega:CellTiterGlo®) after an incubation period of 4 days.
NSCs are thawed and expanded over 3 passages. On the 14th day, NSCs are seeded in Polyornithin/Laminin coated 384 well plates at a cell density of 21′000 cells/cm^2 in a media volume of 38 μl.
4 hours after cell seeding, compound solutions are added at a volume of 2 μl. Stock solutions of the compounds (water, 5% DMSO) are diluted to obtain a dose response (11 points, dilution factor is 2), ranging from 8 μM to 8 nM. Controls are run to consistently determine the neurogenic properties of the cells:
Negative (neutral) control is cell culture Media (final DMSO concentration: 0.25%).
Positive controls are: • 1. cell culture Media+100 ng/ml FGF2 (final DMSO concentration: 0.1%) • 2. cell culture Media+20 ng/ml EGF (final DMSO concentration: 0.1%) • 3. cell culture Media+100 ng/ml Wnt3a (final DMSO concentration: 0.1%)
After 4 days incubation at 37° C., 5% CO2, the amount of ATP per well is quantified. The ATP concentration is proportional to the cell number. ATP is quantified by using the Promega CellTiterGlo® kit. The CellTiterGlo® reagents contain a cell lysis buffer, a thermo stable luciferase (UltraGlo™ recombinant luciferase), magnesium and luciferin. Luciferin reacts with ATP producing oxyluciferin, AMP and light. The luminescence signal is proportional to the ATP content.
The value of negative (neutral) control is determined for each assay plate by taking the average of 16 negative control wells. The neurogenic compound response is calculated for each compound as (compound/Negative Control)*100.
The values of EC150 from the dose response curve are determined for each test compound. The EC150 is the compound concentration at which 150% activity of control (100%) is reached.

Going from `NC(=O)c1cnc2cncc(-c3ccc(F)cc3)c2c1` [Example 5, 5-(4-Fluorophenyl)-1,7-naphthyridine-3-carboxamide] to `NC(=O)c1cnc2cncc(-c3ccc(Cl)cc3)c2c1` [Example 1, 5-(4-Chlorophenyl)-1,7-naphthyridine-3-carboxamide], the EC (150% of control) falls from 1.1 µM to 0.09 µM (12-fold).

`COCCNC(=O)c1cnc2cncc(-c3ccc(Cl)cc3)c2c1` [Example 21, 5-(4-Chlorophenyl)-N-(2-methoxyethyl)-1,7-naphthyridine-3-carboxamide] and `O=C(NCC1CC1)c1cnc2cncc(-c3ccc(Cl)cc3)c2c1` [Example 20, 5-(4-Chlorophenyl)-N-(cyclopropylmethyl)-1,7-naphthyridine-3-carboxamide] are within 1.5-fold of each other in EC (150% of control): 4.6 µM for the first, 4.24 µM for the second.

`O=C(NCC(F)(F)F)c1cnc2cncc(-c3ccc(F)cc3)c2c1` [Example 17, 5-(4-Fluorophenyl)-N-(2,2,2-trifluoroethyl)-1,7-naphthyridine-3-carboxamide] and `O=C(NCC(F)(F)F)c1cnc2cncc(-c3ccc(F)cc3F)c2c1` [Example 15, 5-(2,4-Difluorophenyl)-N-(2,2,2-trifluoroethyl)-1,7-naphthyridine-3-carboxamide] are within 1.5-fold of each other in EC (150% of control): 1.13 µM for the first, 1.36 µM for the second.

Going from `NC(=O)c1cnc2cncc(-c3ccc(F)c(F)c3)c2c1` [Example 6, 5-(3,4-Difluorophenyl)-1,7-naphthyridine-3-carboxamide] to `NC(=O)c1cnc2cncc(-c3cc(F)c(F)c(F)c3)c2c1` [Example 4, 5-(3,4,5-Trifluorophenyl)-1,7-naphthyridine-3-carboxamide], the EC (150% of control) rises from 0.55 µM to 1.9 µM (3.5-fold).

Compared with `CS(=O)(=O)c1ccc(CNC(=O)c2cnc3cncc(-c4ccc(Cl)cc4)c3c2)cc1` [Example 18, 5-(4-Chlorophenyl)-N-(4-(methylsulfonyl)benzyl)-1,7-naphthyridine-3-carboxamide], `CS(=O)(=O)c1cccc(CNC(=O)c2cnc3cncc(-c4ccc(Cl)cc4)c3c2)c1` [Example 19, 5-(4-Chlorophenyl)-N-(3-(methylsulfonyl)benzyl)-1,7-naphthyridine-3-carboxamide] is 13-fold higher in EC (150% of control): 0.25 µM for the first, 3.18 µM for the second.

Going from `NC(=O)c1cnc2cncc(-c3ccc(F)cc3F)c2c1` [Example 7, 5-(2,4-Difluorophenyl)-1,7-naphthyridine-3-carboxamide] to `NC(=O)c1cnc2cncc(-c3ccc(Cl)cc3F)c2c1` [Example 12, 5-(4-Chloro-2-fluorophenyl)-1,7-naphthyridine-3-carboxamide], the EC (150% of control) falls from 0.48 µM to 0.07 µM (6.9-fold).

`NC(=O)c1cnc2cncc(-c3ccc(Cl)nc3)c2c1` [Example 27, 5-(6-Chloropyridin-3-yl)-1,7-naphthyridine-3-carboxamide] and `N#Cc1ccc(-c2cncc3ncc(C(N)=O)cc23)cc1` [Example 8, 5-(4-Cyanophenyl)-1,7-naphthyridine-3-carboxamide] are within 1.5-fold of each other in EC (150% of control): 1.08 µM for the first, 1.37 µM for the second.

`NC(=O)c1cnc2cncc(N3CCC(F)(F)CC3)c2c1` [Example 26, 5-(4,4-Difluoropiperidin-1-yl)-1,7-naphthyridine-3-carboxamide] and `NC(=O)c1cnc2cncc(N3CCOCC3)c2c1` [Example 16, 5-Morpholino-1,7-naphthyridine-3-carboxamide] are within 1.5-fold of each other in EC (150% of control): 2.09 µM for the first, 1.43 µM for the second.

First: Cc1nc2cncc(-c3ccc(Cl)cc3)c2cc1C(N)=O [Example 11, 5-(4-Chlorophenyl)-2-methyl-1,7-naphthyridine-3-carboxamide]
Second: CS(=O)(=O)c1ccc(-c2cncc3ncc(C(N)=O)cc23)cc1 [Example 9, 5-(4-(Methylsulfonyl)phenyl)-1,7-naphthyridine-3-carboxamide]
The EC (150% of control) of the first is 13-fold lower: 0.12 µM for the first, 1.58 µM for the second.

Compared with `CS(=O)(=O)CCNC(=O)c1cnc2cncc(-c3ccc(Cl)cc3F)c2c1` [Example 13, 5-(4-Chloro-2-fluorophenyl)-N-(2-(methylsulfonyl)ethyl)-1,7-naphthyridine-3-carboxamide], `NC(=O)c1cnc2cncc(-c3ccc(Cl)cc3Cl)c2c1` [Example 28, 5-(2,4-Dichlorophenyl)-1,7-naphthyridine-3-carboxamide] is 3.3-fold lower in EC (150% of control): 1.51 µM for the first, 0.46 µM for the second.

Going from `NC(=O)c1cnc2cncc(-c3cccc(OC(F)(F)F)c3)c2c1` [Example 23, 5-(3-(Trifluoromethoxy)phenyl)-1,7-naphthyridine-3-carboxamide] to `NC(=O)c1cnc2cncc(-c3ccc(OC(F)(F)F)cc3)c2c1` [Example 2, 5-(4-(Trifluoromethoxy)phenyl)-1,7-naphthyridine-3-carboxamide], the EC (150% of control) falls from 5.73 µM to 0.47 µM (12-fold).

First: NC(=O)c1cnc2cncc(-c3ccc(C(F)(F)F)cc3)c2c1 [Example 10, 5-(4-(Trifluoromethyl)phenyl)-1,7-naphthyridine-3-carboxamide]
Second: NC(=O)c1cnc2cncc(-c3ccccc3F)c2c1 [Example 3, 5-(2-Fluorophenyl)-1,7-naphthyridine-3-carboxamide]
The EC (150% of control) of the first is 3.7-fold lower: 0.3 µM for the first, 1.12 µM for the second.

Going from `O=C(NCC(F)(F)F)c1cnc2cncc(-c3ccccc3F)c2c1` [Example 14, 5-(2-Fluorophenyl)-N-(2,2,2-trifluoroethyl)-1,7-naphthyridine-3-carboxamide] to `COc1cccc(-c2cncc3ncc(C(N)=O)cc23)c1` [Example 22, 5-(3-Methoxyphenyl)-1,7-naphthyridine-3-carboxamide], the EC (150% of control) rises from 1.21 µM to 1.93 µM (1.6-fold).

`COC(=O)c1cncc2ncc(C(N)=O)cc12` [Example 24, Methyl 3-carbamoyl-1,7-naphthyridine-5-carboxylate] and `NC(=O)c1cnc2cncc(C3=CCOCC3)c2c1` [Example 25, 5-(3,6-Dihydro-2H-pyran-4-yl)-1,7-naphthyridine-3-carboxamide] are within 1.5-fold of each other in EC (150% of control): 3.2 µM for the first, 4.41 µM for the second.
